# According to the supplement of paper PMC6045584:
# ± gives the standard deviation of the averaged measurements.
# Compound: CC(=O)NCC(=O)N1[C@@H]2CC[C@H]1c1ccc(Nc3ncc(C(F)(F)F)c(NC4CCC4)n3)cc12
# Test: surviving fraction relative to DMSO-only wells; higher = less growth inhibition
# Details: 50 nM; exposure time: 5 days
# Outline: (§1)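 In 384-well plates, 250–500 log-phase tumour cells per well were given 24 hours before five days of continuous exposure to inhibitors at 0.5, 1, 5, 10, 50, 100, 500 and 1000 nM. Surviving fraction is luminescence from CellTiter-Glo, normalised to the median of wells containing DMSO alone. Reading took place after 10 minutes at room temperature.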
row,Test System,surviving fraction
1,YAMATO SYNOVIAL,0.994 ± 0.005
2,C33A CERVIX,0.665 ± 0.087
3,PCI30 HEADNECK,0.964 ± 0.035
4,SCC003 HEADNECK,0.988 ± 0.043
5,HUO3N1 BONE,1.03 ± 0.076
6,T47D BREAST,1.16 ± 0.025
7,NOS1 BONE,0.84 ± 0.062
8,HELA CERVIX,0.697 ± 0.053
9,NY BONE,0.69 ± 0.011
10,CASKI CERVIX,0.771 ± 0.049
11,BT549 BREAST,0.993 ± 0.1
12,COLO320DM LARGE INTESTINE,0.573 ± 0.087
13,MDAMB361 BREAST,0.922 ± 0.11
14,HOSMNG BONE,0.886 ± 0.088
15,A549 LUNG,0.686 ± 0.024
16,CAL51 BREAST,0.675 ± 0.019
17,OSHN BONE,0.991 ± 0.02
18,MCF7 BREAST,0.776 ± 0.018
19,HT1080 SOFT TISSUE,0.66 ± 0.0067
20,MDAMB157 BREAST,0.79 ± 0.11

row,Test System,surviving fraction
1,143B BONE,0.868 ± 0.0085
2,SIHA CERVIX,1.01 ± 0.064
3,MDAMB134 BREAST,0.992 ± 0.041
4,SG32 HEADNECK,0.758 ± 0.26
5,NCIH441 LUNG,0.991 ± 0.022
6,SG31 HEADNECK,0.913 ± 0.052
7,OS25HAL BONE,0.796 ± 0.062
8,HCC1954 BREAST,0.828 ± 0.022
9,VP229 BREAST,0.917 ± 0.046
10,22RV1 PROSTATE,0.587 ± 0.021
11,MDAMB231 BREAST,0.706 ± 0.063
12,RDES SOFT TISSUE,1.07 ± 0.17
13,LM7 BONE,0.921 ± 0.067
14,HMT3552 BREAST,0.148
15,SNU475 LIVER,0.902 ± 0.035
16,HCC38 BREAST,0.747 ± 0.077
17,HU09 BONE,0.67 ± 0.024
18,ASKA SYNOVIAL,0.365 ± 0.018
19,CADOES1 SOFT TISSUE,0.565 ± 0.074

# Same assay, conditions: 100 nM; exposure time: 5 days
row,Test System,surviving fraction
1,JURKAT HAEMATOPOIETIC AND LYMPHOID TISSUE,0.677 ± 0.018
2,SJSA1 BONE,0.95 ± 0.019
3,YAMATO SYNOVIAL,0.738 ± 0.023
4,C33A CERVIX,0.515 ± 0.03
5,PCI30 HEADNECK,0.625 ± 0.032
6,SCC003 HEADNECK,0.636 ± 0.063
7,HUO3N1 BONE,0.972 ± 0.036
8,T47D BREAST,1.09 ± 0.013
9,NOS1 BONE,0.724 ± 0.055
10,HELA CERVIX,0.4 ± 0.052
11,NY BONE,0.672 ± 0.025
12,CASKI CERVIX,0.214 ± 0.018
13,BT549 BREAST,0.494 ± 0.071
14,COLO320DM LARGE INTESTINE,0.559 ± 0.02
15,MDAMB361 BREAST,1.1 ± 0.05
16,HOSMNG BONE,0.874 ± 0.041
17,A549 LUNG,0.65 ± 0.031
18,CAL51 BREAST,0.222 ± 0.0058
19,OSHN BONE,0.206 ± 0.0076
20,MCF7 BREAST,0.741 ± 0.027
21,HT1080 SOFT TISSUE,0.404 ± 0.011

row,Test System,surviving fraction
1,MDAMB157 BREAST,0.498 ± 0.068
2,143B BONE,0.928 ± 0.015
3,SIHA CERVIX,0.801 ± 0.046
4,MDAMB134 BREAST,1.25 ± 0.18
5,SG32 HEADNECK,0.474 ± 0.036
6,NCIH441 LUNG,0.856 ± 0.049
7,SG31 HEADNECK,0.705 ± 0.069
8,OS25HAL BONE,0.605 ± 0.092
9,HCC1954 BREAST,0.745 ± 0.14
10,VP229 BREAST,0.548 ± 0.016
11,22RV1 PROSTATE,0.678 ± 0.026
12,MDAMB231 BREAST,0.571 ± 0.027
13,RDES SOFT TISSUE,0.245 ± 0.018
14,LM7 BONE,0.642 ± 0.037
15,HMT3552 BREAST,0.47
16,SNU475 LIVER,0.804 ± 0.035
17,HCC38 BREAST,0.668 ± 0.051
18,HU09 BONE,0.583 ± 0.011
19,ASKA SYNOVIAL,0.335 ± 0.023
20,CADOES1 SOFT TISSUE,0.109 ± 0.011

# Same assay, conditions: 500 nM; exposure time: 5 days
row,Test System,surviving fraction
1,JURKAT HAEMATOPOIETIC AND LYMPHOID TISSUE,0.395 ± 0.01
2,SJSA1 BONE,0.6 ± 0.013
3,YAMATO SYNOVIAL,0.622 ± 0.022
4,C33A CERVIX,0.396 ± 0.011
5,PCI30 HEADNECK,0.567 ± 0.016
6,SCC003 HEADNECK,0.425 ± 0.035
7,HUO3N1 BONE,0.737 ± 0.064
8,T47D BREAST,1.12 ± 0.018
9,NOS1 BONE,0.302 ± 0.017
10,HELA CERVIX,0.168 ± 0.03
11,NY BONE,0.432 ± 0.025
12,CASKI CERVIX,0.199 ± 0.015
13,BT549 BREAST,0.409 ± 0.071
14,COLO320DM LARGE INTESTINE,0.283 ± 0.0029
15,MDAMB361 BREAST,1.09 ± 0.075
16,HOSMNG BONE,0.449 ± 0.019
17,A549 LUNG,0.585 ± 0.014
18,CAL51 BREAST,0.144 ± 0.0039
19,OSHN BONE,0.407 ± 0.036
20,MCF7 BREAST,0.656 ± 0.035
21,HT1080 SOFT TISSUE,0.303 ± 0.004

row,Test System,surviving fraction
1,MDAMB157 BREAST,0.431 ± 0.077
2,143B BONE,0.597 ± 0.039
3,SIHA CERVIX,0.631 ± 0.046
4,MDAMB134 BREAST,1.13 ± 0.12
5,SG32 HEADNECK,0.432 ± 0.095
6,NCIH441 LUNG,0.626 ± 0.08
7,SG31 HEADNECK,0.749 ± 0.076
8,OS25HAL BONE,0.428 ± 0.069
9,HCC1954 BREAST,1.07 ± 0.021
10,VP229 BREAST,0.624 ± 0.031
11,22RV1 PROSTATE,0.625 ± 0.059
12,MDAMB231 BREAST,0.416 ± 0.022
13,RDES SOFT TISSUE,0.249 ± 0.025
14,LM7 BONE,0.25 ± 0.024
15,HMT3552 BREAST,0.121
16,SNU475 LIVER,0.686 ± 0.079
17,HCC38 BREAST,0.594 ± 0.15
18,HU09 BONE,0.3 ± 0.0061
19,ASKA SYNOVIAL,0.34 ± 0.012
20,CADOES1 SOFT TISSUE,0.0853 ± 0.005

# Same assay, conditions: 1000 nM; exposure time: 5 days
row,Test System,surviving fraction
1,JURKAT HAEMATOPOIETIC AND LYMPHOID TISSUE,0.305 ± 0.019
2,SJSA1 BONE,0.531 ± 0.014
3,YAMATO SYNOVIAL,0.543 ± 0.058
4,C33A CERVIX,0.351 ± 0.012
5,PCI30 HEADNECK,0.564 ± 0.0087
6,SCC003 HEADNECK,0.397 ± 0.076
7,HUO3N1 BONE,0.533 ± 0.037
8,T47D BREAST,1.07 ± 0.013
9,NOS1 BONE,0.219 ± 0.028
10,HELA CERVIX,0.142 ± 0.015
11,NY BONE,0.129 ± 0.0021
12,CASKI CERVIX,0.133 ± 0.0061
13,BT549 BREAST,0.237 ± 0.014
14,COLO320DM LARGE INTESTINE,0.237 ± 0.015
15,MDAMB361 BREAST,0.928 ± 0.093
16,HOSMNG BONE,0.392 ± 0.0087
17,A549 LUNG,0.445 ± 0.022
18,CAL51 BREAST,0.146 ± 0.009
19,OSHN BONE,0.218 ± 0.011
20,MCF7 BREAST,0.549 ± 0.026
21,HT1080 SOFT TISSUE,0.281 ± 0.0093

row,Test System,surviving fraction
1,MDAMB157 BREAST,0.216 ± 0.041
2,143B BONE,0.495 ± 0.056
3,SIHA CERVIX,0.531 ± 0.034
4,MDAMB134 BREAST,1.31 ± 0.1
5,SG32 HEADNECK,0.398 ± 0.023
6,NCIH441 LUNG,0.588 ± 0.0087
7,SG31 HEADNECK,0.717 ± 0.1
8,OS25HAL BONE,0.264 ± 0.029
9,HCC1954 BREAST,0.905 ± 0.11
10,VP229 BREAST,0.556 ± 0.057
11,22RV1 PROSTATE,0.56 ± 0.066
12,MDAMB231 BREAST,0.337 ± 0.018
13,RDES SOFT TISSUE,0.195 ± 0.0049
14,LM7 BONE,0.13 ± 0.007
15,HMT3552 BREAST,0.116
16,SNU475 LIVER,0.529 ± 0.041
17,HCC38 BREAST,0.455 ± 0.062
18,HU09 BONE,0.179 ± 0.023
19,ASKA SYNOVIAL,0.386 ± 0.035
20,CADOES1 SOFT TISSUE,0.0867 ± 0.0065

# Compound: CC[C@@]1(O)C(=O)OCc2c1cc1n(c2=O)Cc2cc3ccccc3nc2-1 [CAMPTOTHECIN]
# Test: as above
# Details: 0.5 nM; exposure time: 5 days
# Outline: as §1
row,Test System,surviving fraction
1,JURKAT HAEMATOPOIETIC AND LYMPHOID TISSUE,0.928 ± 0.043
2,SJSA1 BONE,1.18 ± 0.043
3,YAMATO SYNOVIAL,0.118 ± 0.0092
4,C33A CERVIX,0.863 ± 0.019
